# Test results reported in patent US20040152715A1, “Cycloalkylene amide compounds as NR2B receptor antagonists” (priority 2002, published 2004).
# Columns and labels:
# human NR1b/2B receptor = target: T1, human NR1b/2B receptor (Homo sapiens, UniProt Q13224); experiment: Human NR2B Cell Functional Assay; type: cell-based; conditions: statement in words in Background Art; test not named
# T1 construct: expressed in transfected cells
# Method: Human NR2B Cell Functional Assay
# HEK293 cells stably expressing human NR1b/2B receptor were used for cell functional assay. Cells were grown in 75-cm^2 culture flasks, using Dulbecco's modified Eagle's medium (DMEM, high glucose) supplemented with 10% fetal bovine, 52 μg/ml Zeocin, 530 μg/ml Geneticin, 100 units/ml penicillin and 100 μg/ml streptomycin. Cells were maintained in a humidified atmosphere in 5% CO2 at 37° C., and 50-60% confluent cells were harvested by 0.05% trypsin containing 0.53 mM EDTA. The day before the experiment, expression of NR1b/2B receptor was induced by 5 μM ponasteron A in DMEM (40 ml) in the presence of 400 μM ketamine to prevent excitotoxicity. […]
# Cells were washed with 10 ml of Ca^2+-free Krebs-Ringer Hepes buffer (KRH) containing 400 μM ketamine, and the loading of 5 μM fura-2 acetoxymethyl ester was made for 2 hrs at room temperature in the presence of 400 μM ketamine in Ca^2+-free KRH (10 ml). […] Fura-2 fluorescence (excitation wavelengths: 340 nm and 380 nm; emission wavelengths 510-520 nm) was monitored with a fluorescence imaging system, FDSS6000. The Δ fluorescence ratio F340/F380 (i.e., the fluorescence ratio immediately post-agonist—the basal fluorescence ratio; calculated as AUC) was used for evaluation of drug effects on agonists-induced changes in intracellular Ca^2+. The basal fluorescence ratio was determined in the presence of 10 μM MK-801.
# NR2B receptor = target: T2, NR2B receptor (Rattus norvegicus, UniProt P35439+Q00960); experiment: NR2B Binding Assay; conditions: statement in words in Background Art on prior-art compounds; test not named
# T2 construct: Membranes were prepared by homogenization of forebrain of male CD rats; from tissue; host or cells: rat forebrain P2 membranes
# T2 sequence (Q00960 27-1482, other chains not shown): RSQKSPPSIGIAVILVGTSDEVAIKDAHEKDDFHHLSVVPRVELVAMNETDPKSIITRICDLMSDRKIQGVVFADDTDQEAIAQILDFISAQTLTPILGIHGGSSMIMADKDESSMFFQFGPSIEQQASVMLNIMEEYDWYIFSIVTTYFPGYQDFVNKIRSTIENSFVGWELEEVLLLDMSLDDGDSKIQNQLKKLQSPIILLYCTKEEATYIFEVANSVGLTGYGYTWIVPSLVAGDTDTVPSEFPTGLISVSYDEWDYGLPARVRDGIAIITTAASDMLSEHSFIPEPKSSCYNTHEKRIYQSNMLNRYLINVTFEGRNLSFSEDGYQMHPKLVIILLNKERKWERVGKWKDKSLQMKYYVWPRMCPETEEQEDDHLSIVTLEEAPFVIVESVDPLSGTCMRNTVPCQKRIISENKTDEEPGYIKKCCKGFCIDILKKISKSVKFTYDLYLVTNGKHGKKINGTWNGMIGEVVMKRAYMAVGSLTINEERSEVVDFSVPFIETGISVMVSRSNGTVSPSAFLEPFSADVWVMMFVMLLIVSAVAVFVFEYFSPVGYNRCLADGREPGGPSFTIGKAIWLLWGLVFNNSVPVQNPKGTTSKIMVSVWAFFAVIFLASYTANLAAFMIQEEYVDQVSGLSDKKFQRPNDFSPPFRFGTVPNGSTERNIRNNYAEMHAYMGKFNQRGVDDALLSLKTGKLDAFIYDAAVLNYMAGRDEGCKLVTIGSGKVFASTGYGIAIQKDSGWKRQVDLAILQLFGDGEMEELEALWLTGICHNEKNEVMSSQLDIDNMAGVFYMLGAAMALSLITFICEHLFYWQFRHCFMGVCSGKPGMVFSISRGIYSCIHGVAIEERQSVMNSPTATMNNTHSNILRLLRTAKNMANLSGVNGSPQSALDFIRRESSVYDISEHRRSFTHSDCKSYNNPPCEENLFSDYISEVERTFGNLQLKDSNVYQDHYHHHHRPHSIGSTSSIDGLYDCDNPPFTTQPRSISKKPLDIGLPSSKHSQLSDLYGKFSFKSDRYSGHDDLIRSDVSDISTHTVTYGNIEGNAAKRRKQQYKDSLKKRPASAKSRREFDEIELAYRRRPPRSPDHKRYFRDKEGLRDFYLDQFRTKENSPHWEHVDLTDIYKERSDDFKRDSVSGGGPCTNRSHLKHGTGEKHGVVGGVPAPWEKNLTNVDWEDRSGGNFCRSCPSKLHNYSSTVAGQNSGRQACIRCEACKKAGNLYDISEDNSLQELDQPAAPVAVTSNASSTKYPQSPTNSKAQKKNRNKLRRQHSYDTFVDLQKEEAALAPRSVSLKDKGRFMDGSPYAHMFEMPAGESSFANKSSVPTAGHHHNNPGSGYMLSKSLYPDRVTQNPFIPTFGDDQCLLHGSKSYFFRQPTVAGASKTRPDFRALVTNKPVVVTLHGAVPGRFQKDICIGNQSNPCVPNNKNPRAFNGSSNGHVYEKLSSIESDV
# Method: The activity of the cycloalkylene amide compounds of the present invention, as NR2B antagonists, is determined by their ability to inhibit the binding of NR2B subunit at its receptor sites employing radioactive ligands.
# The NR2B antagonist activity of the cycloalkylene amide compounds is evaluated by using the standard assay procedure described in, for example, J. Pharmacol., 331, pp117-126, 1997. This method essentially involves determining the concentration of the individual compound required to reduce the amount of radiolabelled NR2B ligands by 50% at their receptor sites, thereby affording characteristic IC50 values for each compound tested. More specifically, the assay is carried out as follows.
# Membranes were prepared by homogenization of forebrain of male CD rats weighing between 170˜190 g by using glass-Teflon homogenizer in 0.32 M sucrose at 4° C. The crude nuclear pellet was removed by centrifugation at 1000×g for 10 min, and the supernatant centrifuged at 17000×g for 25 min. […]
# For the saturation assay, receptor saturation was determined by incubating [^3H]-CP-98,113 and 50 μg protein of P2 membrane for 60 minutes at room temperature in a final 100 μl of incubation buffer (50 mM Tris HCl, pH7.4). Total and non-specific bindings (in the presence of 10 μM of unlabeled CP-98,113) were determined in a range of [^3H]-CP-98113 concentrations (0.625 nM to 60 nM). […]
# For the competition assay, test compounds were incubated in duplicate with 5 nM [^3H]-CP-98,113 and 50 μg protein of P2 membrane for 60 minutes at room temperature in a final 100 μl of 50 mM Tris HCl buffer (pH7.4). Nonspecific binding was determined by 10 μM of unlabeled CP-98,113 (25 μl). […]
# All incubations were terminated by rapid vacuum filtration over 0.2% polyethyleneimine soaked Whatman GF/B glass fibre filter paper using a SKATRON cell harvester followed by three washes with ice-cold filtration buffer (5 mM Tris HCl, pH 7.4.). Receptor-bound radioactivity was quantified by liquid scintillation counting using Packard LS counter. […]
# QT prolongation = conditions: statement in words in Background Art; attributed to HERG inhibition
# T1 sequence (Q13224 27-1484): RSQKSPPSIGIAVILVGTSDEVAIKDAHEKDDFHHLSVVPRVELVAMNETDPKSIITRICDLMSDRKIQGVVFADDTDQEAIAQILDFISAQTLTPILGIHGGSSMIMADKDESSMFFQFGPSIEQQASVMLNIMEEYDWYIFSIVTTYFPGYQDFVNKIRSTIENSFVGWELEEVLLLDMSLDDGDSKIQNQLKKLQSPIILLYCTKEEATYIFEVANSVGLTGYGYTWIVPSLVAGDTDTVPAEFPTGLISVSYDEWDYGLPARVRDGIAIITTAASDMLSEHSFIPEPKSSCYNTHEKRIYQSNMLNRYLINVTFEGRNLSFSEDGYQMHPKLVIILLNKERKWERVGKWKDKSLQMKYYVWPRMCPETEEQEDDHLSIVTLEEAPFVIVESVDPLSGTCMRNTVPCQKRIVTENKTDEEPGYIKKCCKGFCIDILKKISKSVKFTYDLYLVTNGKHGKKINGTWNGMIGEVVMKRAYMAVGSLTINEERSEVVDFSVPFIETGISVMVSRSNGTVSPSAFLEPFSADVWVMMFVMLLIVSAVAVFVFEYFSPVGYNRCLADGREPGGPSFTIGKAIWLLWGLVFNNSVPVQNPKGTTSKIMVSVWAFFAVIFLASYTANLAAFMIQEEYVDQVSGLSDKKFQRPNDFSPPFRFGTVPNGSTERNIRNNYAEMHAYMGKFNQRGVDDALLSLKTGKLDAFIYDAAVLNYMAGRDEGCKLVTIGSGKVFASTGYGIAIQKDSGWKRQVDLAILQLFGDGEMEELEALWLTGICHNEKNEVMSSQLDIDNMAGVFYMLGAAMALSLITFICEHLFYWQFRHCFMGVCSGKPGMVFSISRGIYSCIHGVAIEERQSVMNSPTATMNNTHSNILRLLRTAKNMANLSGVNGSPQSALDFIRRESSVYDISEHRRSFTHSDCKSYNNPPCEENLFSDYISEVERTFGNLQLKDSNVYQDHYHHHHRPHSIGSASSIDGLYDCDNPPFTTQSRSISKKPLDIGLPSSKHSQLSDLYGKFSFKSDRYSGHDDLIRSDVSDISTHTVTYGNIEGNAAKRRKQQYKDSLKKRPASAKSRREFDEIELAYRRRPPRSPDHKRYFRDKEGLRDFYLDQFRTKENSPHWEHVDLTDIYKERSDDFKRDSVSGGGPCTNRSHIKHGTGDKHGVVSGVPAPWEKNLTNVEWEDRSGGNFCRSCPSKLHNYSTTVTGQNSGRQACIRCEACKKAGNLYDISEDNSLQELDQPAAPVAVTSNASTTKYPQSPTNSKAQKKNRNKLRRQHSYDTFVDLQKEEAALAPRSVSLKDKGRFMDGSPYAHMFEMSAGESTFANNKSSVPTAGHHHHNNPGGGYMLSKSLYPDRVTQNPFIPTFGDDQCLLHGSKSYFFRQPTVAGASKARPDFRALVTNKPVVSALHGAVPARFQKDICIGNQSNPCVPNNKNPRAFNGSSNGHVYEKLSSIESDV
Compound,NR2B receptor antagonist activity (human NR1b/2B receptor),binding affinity (NR2B receptor) (NR2B receptor),melting point,QT prolongation (QT prolongation)
O=C(CCc1ccccc1)N[C@H]1CO[C@H](c2ccc(O)cc2)OC1 [B],insufficient,insufficient,,
"O=C(CCc1ccc(Cl)cc1Cl)N[C@H]1CC[C@](O)(c2ccc(O)cn2)CC1 [Example 7, 3-(2,4-dichlorophenyl)-N-[cis-4-hydroxy-4-(5-hydroxypyridin-2-yl)cyclohexyl]propanamide]",,,198.1 °C,
"O=C(CCc1ccc(F)cc1)N[C@H]1CC[C@H](c2ccc(O)cn2)CC1 [Example 12, 3-(4-fluorophenyl)-N-[trans-4-(5-hydroxypyridin-2-yl)cyclohexyl]propanamide]",,,195.4 °C,

# More lines, main results first:
NR2B receptor antagonist activity (human NR1b/2B receptor),binding affinity (NR2B receptor) (NR2B receptor),melting point,Compound,QT prolongation (QT prolongation)
,insufficient,,O=C(CCc1ccccc1)N[C@H]1CC[C@H](c2ccc(O)cc2)CC1 [Compound A],
,potent,,CN(CCCc1ccc(F)cc1)[C@H]1CC[C@H](c2ccc3[nH]c(=O)oc3c2)CC1 [Compound E],shows QT prolongation
